# Source: patent US9421208B2, “Methods for the treatment of solid tumors” (Pharmacyclics LLC, priority 2013, dated 2016)
# Entries after “also recorded” stand apart in the source; their conditions may differ.
# System: lung tumors in Grg1 transgenic mice
# Assay: Tumor development in Grg1 transgenic mouse model of non-small cell lung cancer
# Assay type: in vivo
# Conditions: for tumors visible on whole lung lobes: 3 month mice after 4 weeks of treatment (FIG. 8); for average number of surface tumors per mouse: abexinostat 12 mg/kg BID i.p., ibrutinib ~22 mg/kg/day in drinking water; for tumor histology in lung tissue sections: 6 month mice after 4 weeks of treatment; for tumors visible on whole left lung lobes: 6 month mice after 4 weeks of treatment (FIG. 7); for average number of large tumors (over 1 mm in diameter) per mouse: 6 month samples, tissue sections of left lung lobe
# Experimental: The aim of the experiment is to evaluate the effect of two drugs on tumor development in a mouse model of non-small cell lung cancer.
# Grg1 transgenic mice were used to evaluate the drugs. Grg1 transgenic mice overexpress the Groucho-related gene 1 (Grg1). The mice develop lung tumors that resemble human non-small cell lung cancer. Tumors initiate at 1 month of age and progress to invasive adenocarcinoma by 8 months of age. The drugs were administered to 2 month-old mice or to 5 month-old mice, and mice were treated for 4 weeks. The former group is referred to as the 3 month samples and the latter as the 6 month samples.
# Mice were bred to generate double transgenic (Grg1/Cre recombinase) mice on a CD1 background. Four groups of female double transgenic mice were established:
# At least 8 mice in each group were treated at 2 months old and 8 mice in each group were treated at 5 months old. Treatments lasted 4 weeks, and mice were sacrificed at 3 months and 6 months. Therefore samples are referred to as 3 month samples or 6 month samples.
# Abexinostat was administered by intraperitoneal (i.p.) injection, twice per day for five days each week. Mice were weighed and injected with 6 μl per gram body weight of a 1 mg/ml solution. The dosage was 12 mg/kg BID.
# Mice were treated for 4 weeks. After treatment, mice were euthanized and lung tissue was examined.
# For quantitation of tumors, the total visible tumors on the lung surface were counted using a dissecting microscope. In addition, the left lung lobe was fixed in 4% PFA, paraffin-embedded and 5 μm sections were taken for 100 μm at two levels. The first level began 30 μm below the lung surface and the second level began 130 μm below the lung surface. Alternate slides were H&E stained, and tumors were detected and counted using a dissecting microscope. Tumor diameter was measured using an inverted microscope and reticule.
# [1] = 3 month samples: treated 4 weeks from 2 months
# [2] = 6 month samples: treated 4 weeks from 5 months
Compound,tumors visible on whole lung lobes,average number of surface tumors per mouse [1],tumor histology in lung tissue sections,tumors visible on whole left lung lobes,average number of large tumors (over 1 mm in diameter) per mouse,average number of surface tumors per mouse [2],tumor diameter in 6 month sections (6 month sections (FIG. 9))
"CN(C)Cc1c(C(=O)NCCOc2ccc(C(=O)NO)cc2)oc2ccccc12 [Abexinostat, 3-[(dimethylamino)methyl]-N-{2-[4-(hydroxycarbamoyl)phenoxy]ethyl}-1-benzofuran-2-carboxamide]",one small tumor is visible,3.0,"high number of apoptotic cells; also recorded: lymphocyte infiltration, necrosis and large areas with apoptotic cells",medium and small tumors are visible,0.5,4.6,
"C=CC(=O)N1CCC[C@@H](n2nc(-c3ccc(Oc4ccccc4)cc3)c3c(N)ncnc32)C1 [Ibrutinib, (R)-1-(3-(4-amino-3-(4-phenoxyphenyl)-1H-pyrazolo[3,4-d]pyrimidin-1-yl)piperidin-1-yl)prop-2-en-1-one]",one small tumor is visible,2.6,lack the high number of apoptotic macrophages; also recorded: less tumor necrosis than the control samples; also recorded: lymphocyte infiltration but not the apoptotic macrophages seen in the control and in Abexinostat-treated mice,medium and small tumors are visible,0.5,7.6,"no small tumors in Ib-treated sections, just one large tumor"
